From patent US12492181B2, “Gem-disubstituted piperidine melanocortin subtype-2 receptor (MC2R) antagonists and uses thereof” (Crinetics Pharmaceuticals, Inc., priority 2019, dated 2025)

molecular target: T1, hMC2 receptor (crude hMC2R membranes from CRE-bla-CHO-K1 cells stably expressing hMC2 receptor and hMRAP accessory protein) (Homo sapiens, UniProt Q01718); assay: hMC2 membrane binding assay ([125I]ACTH (1-39) Tyr23, SPA); settings: displacement of 0.2 nM [125I]ACTH (1-39) Tyr23 from hMC2R membranes, 1.5 hours at room temperature; read-out: MC2R binding potency
T1 construct: crude membrane fractions
Summary of the method: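 Crude membranes from CRE-bla-CHO-K1 cells stably co-expressing hMC2R and hMRAP, premixed with WGA PVT SPA beads in pH 7.4 HEPES buffer (5 mM MgCl2, 1 mM CaCl2, 0.20% BSA, protease inhibitors). Compounds compete with [125I]ACTH(1-39) Tyr23, read by scintillation. Ki from non-linear regression.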

T1 sequence (Q01718 whole entry): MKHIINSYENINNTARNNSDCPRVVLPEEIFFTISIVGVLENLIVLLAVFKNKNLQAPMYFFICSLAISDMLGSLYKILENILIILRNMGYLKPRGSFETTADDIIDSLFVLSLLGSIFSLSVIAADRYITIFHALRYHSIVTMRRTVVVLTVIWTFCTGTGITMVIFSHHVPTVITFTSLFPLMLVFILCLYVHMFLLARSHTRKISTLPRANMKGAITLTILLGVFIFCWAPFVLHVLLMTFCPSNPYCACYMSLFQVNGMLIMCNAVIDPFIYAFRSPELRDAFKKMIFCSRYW
T1 sequence (Q8TCY5 whole entry partner): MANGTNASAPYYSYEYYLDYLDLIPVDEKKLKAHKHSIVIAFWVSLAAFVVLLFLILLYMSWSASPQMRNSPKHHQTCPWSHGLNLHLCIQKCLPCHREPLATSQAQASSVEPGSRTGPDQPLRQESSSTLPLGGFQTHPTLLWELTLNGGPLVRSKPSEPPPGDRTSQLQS

Compound | Ki
CCOc1ccccc1-c1ccc(C2(C(=O)NCCNC)CCN(c3ccc(C(F)(F)F)cc3F)CC2)cn1 [Compound 1-227, 4-[6-(2-ethoxyphenyl)pyridin-3-yl]-1-[2-fluoro-4-(trifluoromethyl)phenyl]-N-[2-(methylamino)ethyl]piperidine-4-carboxamide] | < 10 nM
CCOc1ncccc1-c1ccc(C2(C(=O)NC[C@@H](CO)N(C)C)CCN(c3ccc(C(F)(F)F)cc3C#N)CC2)cn1 [Compound 1-48, 1-[2-cyano-4-(trifluoromethyl)phenyl]-N-[(2S)-2-(dimethylamino)-3-hydroxypropyl]-4-{2′-ethoxy-[2,3′-bipyridin]-5-yl}piperidine-4-carboxamide] | < 10 nM
CCOc1ncccc1-c1ccc(C2(C(=O)NC3CN(C)C3)CCN(c3ccc(C(F)(F)F)cc3C#N)CC2)nn1 [Compound 1-140, 1-[2-cyano-4-(trifluoromethyl)phenyl]-4-[6-(2-ethoxypyridin-3-yl)pyridazin-3-yl]-N-(1-methylazetidin-3-yl)piperidine-4-carboxamide] | < 10 nM
COc1ccccc1-c1ccc(C2(C(=O)NCCN3CCC3)CCN(c3ccc(C(F)(F)F)cc3C#N)CC2)cn1 [Compound 1-245, N-[2-(azetidin-1-yl)ethyl]-1-[2-cyano-4-(trifluoromethyl)phenyl]-4-[6-(2-methoxyphenyl)pyridin-3-yl]piperidine-4-carboxamide] | < 10 nM
CN1CC[C@H](NC(=O)C2(c3cnc(-c4cccn4C)c(F)c3)CCN(c3ccc(Cl)cc3C#N)CC2)C1 [Compound 1-163, 1-(4-chloro-2-cyanophenyl)-4-[5-fluoro-6-(1-methyl-1H-pyrrol-2-yl)pyridin-3-yl]-N-[(3S)-1-methylpyrrolidin-3-yl]piperidine-4-carboxamide] | < 10 nM
CCOc1ncccc1-c1ccc(C2(C(=O)N[C@@H]3CCN(C)C3)CCN(c3ccc(C(F)(F)F)cc3C#N)CC2)cc1F [Compound 1-75, 1-[2-cyano-4-(trifluoromethyl)phenyl]-4-[4-(2-ethoxypyridin-3-yl)-3-fluorophenyl]-N-[(3R)-1-methylpyrrolidin-3-yl]piperidine-4-carboxamide] | < 10 nM
CN(C)[C@@H](CO)CNC(=O)C1(c2ccc(-c3cccn3C)nc2)CCN(c2ccc(C(F)(F)F)cc2C#N)CC1 [Compound 1-275, 1-[2-cyano-4-(trifluoromethyl)phenyl]-N-[(2R)-2-(dimethylamino)-3-hydroxypropyl]-4-[6-(1-methyl-1H-pyrrol-2-yl)pyridin-3-yl]piperidine-4-carboxamide] | < 10 nM
CNCCNC(=O)C1(c2cnc(-c3ccccc3OC)c(F)c2)CCN(c2ccc(C(F)(F)F)cc2C#N)CC1 [Compound 1-196, 1-[2-cyano-4-(trifluoromethyl)phenyl]-4-[5-fluoro-6-(2-methoxyphenyl)pyridin-3-yl]-N-[2-(methylamino)ethyl]piperidine-4-carboxamide] | < 10 nM
CN1CC[C@@H](NC(=O)C2(c3ccc(-c4cccc(F)c4O)nc3)CCN(c3ccc(C(F)(F)F)cc3C#N)CC2)C1 [Compound 1-129, 1-[2-cyano-4-(trifluoromethyl)phenyl]-4-[6-(3-fluoro-2-hydroxyphenyl)pyridin-3-yl]-N-[(3R)-1-methylpyrrolidin-3-yl]piperidine-4-carboxamide] | 10 to 100 nM
C[C@@H](CN(C)C)NC(=O)C1(c2ccc(-c3cccn3C)nc2)CCN(c2ccc(C(F)(F)F)cc2C#N)CC1 [Compound 1-261, 1-[2-cyano-4-(trifluoromethyl)phenyl]-N-[(2S)-1-(dimethylamino)propan-2-yl]-4-[6-(1-methyl-1H-pyrrol-2-yl)pyridin-3-yl]piperidine-4-carboxamide] | < 10 nM
CCOc1ncccc1-c1ccc(C2(C(=O)N[C@H]3CCN(C)C3)CCN(c3ccc(C(F)(F)F)cc3F)CC2)cn1 [Compound 1-186, 4-{2′-ethoxy-[2,3′-bipyridin]-5-yl}-1-[2-fluoro-4-(trifluoromethyl)phenyl]-N-[(3S)-1-methylpyrrolidin-3-yl]piperidine-4-carboxamide] | < 10 nM
COc1ccccc1-c1ncc(C2(C(=O)N[C@H]3CCN(C)C3)CCN(c3ccc(C(F)(F)F)nc3C#N)CC2)cc1F [Compound 1-128, 1-[2-cyano-6-(trifluoromethyl)pyridin-3-yl]-4-[5-fluoro-6-(2-methoxyphenyl)pyridin-3-yl]-N-[(3S)-1-methylpyrrolidin-3-yl]piperidine-4-carboxamide] | < 10 nM
CCOc1ncccc1-c1ccc(C2(C(=O)N[C@H]3CCN(C)C3)CCN(c3ccc(C(F)(F)F)cc3F)CC2)nn1 [Compound 1-193, 4-[6-(2-ethoxypyridin-3-yl)pyridazin-3-yl]-1-[2-fluoro-4-(trifluoromethyl)phenyl]-N-[(3S)-1-methylpyrrolidin-3-yl]piperidine-4-carboxamide] | < 10 nM
CCOc1ccccc1-c1ccc(C2(C(=O)NC3CN(C)C3)CCN(c3ccc(Cl)cc3C#N)CC2)cn1 [Compound 1-93, 1-(4-chloro-2-cyanophenyl)-4-[6-(2-ethoxyphenyl)pyridin-3-yl]-N-(1-methylazetidin-3-yl)piperidine-4-carboxamide] | < 10 nM
CCOc1ncccc1-c1ccc(C2(C(=O)N[C@H]3CCN(C)C3)CCN(c3ccc(C#N)cc3C(F)(F)F)CC2)cn1 [Compound 1-38, 1-[4-cyano-2-(trifluoromethyl)phenyl]-4-{2′-ethoxy-[2,3′-bipyridin]-5-yl}-N-[(3S)-1-methylpyrrolidin-3-yl]piperidine-4-carboxamide] | < 10 nM
CCOc1ccccc1-c1ncc(C2(C(=O)N[C@H]3CCN(C)C3)CCN(c3ccc(C(F)(F)F)nc3C#N)CC2)cc1F [Compound 1-125, 1-[2-cyano-6-(trifluoromethyl)pyridin-3-yl]-4-[6-(2-ethoxyphenyl)-5-fluoropyridin-3-yl]-N-[(3S)-1-methylpyrrolidin-3-yl]piperidine-4-carboxamide] | < 10 nM
CCOc1ncccc1-c1ccc(C2(C(=O)N[C@H]3CCN(C)C3)CCN(c3ccc(C(F)(F)F)cc3Cl)CC2)nn1 [Compound 1-194, 1-[2-chloro-4-(trifluoromethyl)phenyl]-4-[6-(2-ethoxypyridin-3-yl)pyridazin-3-yl]-N-[(3S)-1-methylpyrrolidin-3-yl]piperidine-4-carboxamide] | < 10 nM
CCOc1ccccc1-c1ncc(C2(C(=O)N[C@H]3CCN(C)C3)CCN(c3ccc(C(F)(F)F)cc3C#N)CC2)cc1F [Compound 1-124, 1-[2-cyano-4-(trifluoromethyl)phenyl]-4-[6-(2-ethoxyphenyl)-5-fluoropyridin-3-yl]-N-[(3S)-1-methylpyrrolidin-3-yl]piperidine-4-carboxamide] | < 10 nM

Now from value to compound:

Ki | Compound
< 10 nM | CN1CC[C@@H](C(=O)NC2(c3ccc(-c4cccn4C)nc3)CCN(c3ccc(C(F)(F)F)cc3C#N)CC2)C1 [Compound 2-47, (3R)—N-{1-[2-cyano-4-(trifluoromethyl)phenyl]-4-[6-(1-methyl-1H-pyrrol-2-yl)pyridin-3-yl]piperidin-4-yl}-1-methylpyrrolidine-3-carboxamide]
< 10 nM | CN1C[C@@H](F)C[C@H]1CNC(=O)C1(c2ccc(-c3cccn3C)nc2)CCN(c2ccc(C(F)(F)F)cc2C#N)CC1 [Compound 1-277, 1-[2-cyano-4-(trifluoromethyl)phenyl]-N-{[(2S,4S)-4-fluoro-1-methylpyrrolidin-2-yl]methyl}-4-[6-(1-methyl-1H-pyrrol-2-yl)pyridin-3-yl]piperidine-4-carboxamide]
< 10 nM | COc1ccccc1-c1ccc(C2(NC(=O)N[C@H]3CCN(C)C3)CCN(c3ccc(C(F)(F)F)cc3C#N)CC2)cn1 [Compound 2-55, 1-{1-[2-cyano-4-(trifluoromethyl)phenyl]-4-[6-(2-methoxyphenyl)pyridin-3-yl]piperidin-4-yl}-3-[(3S)-1-methylpyrrolidin-3-yl]urea]
< 10 nM | COc1ccccc1-c1ccc(C2(NC(=O)OCCN(C)C)CCN(c3ccc(C(F)(F)F)cc3C#N)CC2)cn1 [Compound 2-57, 2-(dimethylamino)ethyl N-{1-[2-cyano-4-(trifluoromethyl)phenyl]-4-[6-(2-methoxyphenyl)pyridin-3-yl]piperidin-4-yl}carbamate]
< 10 nM | CCOc1ccccc1-c1ccc(C2(NC(=O)[C@@H]3CCN(C)C3)CCN(c3ccc(Cl)cc3C#N)CC2)cn1 [Compound 2-29, (3R)—N-[1-(4-chloro-2-cyanophenyl)-4-[6-(2-ethoxyphenyl)pyridin-3-yl]piperidin-4-yl]-1-methylpyrrolidine-3-carboxamide]
< 10 nM | COc1ccccc1-c1ncc(C2(C(=O)NCCN(C)C)CCN(c3ccc(C(F)(F)F)cc3F)CC2)cc1F [Compound 1-285, N-[2-(dimethylamino)ethyl]-1-[2-fluoro-4-(trifluoromethyl)phenyl]-4-[5-fluoro-6-(2-methoxyphenyl)pyridin-3-yl]piperidine-4-carboxamide]
< 10 nM | COc1ncccc1-c1ccc(C2(C(=O)N[C@@H](C)CN(C)C)CCN(c3ccc(C(F)(F)F)cc3Cl)CC2)cn1 [Compound 1-296, 1-[2-chloro-4-(trifluoromethyl)phenyl]-N-[(2S)-1-(dimethylamino)propan-2-yl]-4-{2′-methoxy-[2,3′-bipyridin]-5-yl}piperidine-4-carboxamide]
10 to 100 nM | COc1ccccc1-c1ccc(C2(C(=O)NC[C@H]3CN(C)CCO3)CCN(c3ccc(C(F)(F)F)cc3C#N)CC2)cn1 [Compound 1-327, 1-[2-cyano-4-(trifluoromethyl)phenyl]-4-[6-(2-methoxyphenyl)pyridin-3-yl]-N-{[(2S)-4-methylmorpholin-2-yl]methyl}piperidine-4-carboxamide]
< 10 nM | CCOc1ncccc1-c1ccc(C2(NC(=O)[C@H]3CCN(C)C3)CCN(c3ccc(Cl)cc3C#N)CC2)cn1 [Compound 2-39, (3S)—N-[1-(4-chloro-2-cyanophenyl)-4-{2′-ethoxy-[2,3′-bipyridin]-5-yl}piperidin-4-yl]-1-methylpyrrolidine-3-carboxamide]
